Laboratory results taken from ChEMBL document CHEMBL3217718, “Synthesis, radical scavenging activity and structureactivity relationship of uric acid analogs” (Medchemcomm, 2013).
In brackets after ≈: the same amount, converted by molar mass. Activity calls are given as the source filed them. The rule behind the calls is not given here.

What was measured:
[1] = test system: Radical scavenging activity; experiment: Antioxidant activity assessed as DPPH radical scavenging rate constant measured for 60 secs by spectrophotometric analysis; assay type: functional
[2] = Solubility of the compound in PBS buffer at pH 7.4 at 37 degC; assay type: physicochemical
HL-60 = experiment: Cytotoxicity against human HL60 cells assessed as cell viability up to 120 uM after 24 hrs by trypan blue assay; assay type: cell-based; conditions: hl-60, 24 h
[3] = Solubility of the compound in serum at pH 7.4; assay type: ADME
[4] = test system: Radical scavenging activity; experiment: Antioxidant activity assessed as DPPH radical scavenging activity at 500 uM measured for 60 secs by spectrophotometric analysis; assay type: functional

| SMILES | Activity [1] | Activity [4] | other results |
| --- | --- | --- | --- |
| O=c1[nH]c2cccc(O)c2[nH]1 | 0.37 ×10³ /M/s | – | – |
| O=c1[nH]c2ccc(O)cc2[nH]1 | 110 ×10³ /M/s | – | solubility [2]: 65 µg/mL (≈ 433 µM); Activity (HL-60): Non-toxic |
| Oc1ccc(O)cc1 [HYDROQUINONE] | 4.4 ×10³ /M/s | – | Activity (HL-60): Toxic |
| O=C1Cc2cccc(O)c2N1 | 0.12 ×10³ /M/s | – | – |
| [Na+].[O-]c1nc2c(O)nc(O)nc2[nH]1 | 0.7 ×10³ /M/s | – | solubility [3]: 70 µg/mL |
| c1ccc2[nH]cnc2c1 | – | inactive | – |
| COc1ccc2[nH]c(=O)[nH]c2c1 | – | inactive | – |
| O=c1[nH]c(=O)c2[nH]c(=O)[nH]c2[nH]1 [URIC ACID] | – | – | solubility [2]: 53 µg/mL (≈ 315 µM); Activity (HL-60): Non-toxic |
| O=C1Cc2ccc(O)cc2N1 | 0.93 ×10³ /M/s | – | – |
| COc1ccc2[nH]c(=O)[nH]c2n1 | – | inactive | – |
| Oc1ccc2[nH]ccc2c1 | 2.6 ×10³ /M/s | – | – |
| O=C1Cc2cc(O)ccc2N1 | 11 ×10³ /M/s | – | solubility [2]: 225 µg/mL (≈ 1510 µM); Activity (HL-60): Non-toxic |
| O=c1[nH]c2ccc(O)nc2[nH]1 | 71 ×10³ /M/s | – | solubility [2]: 82 µg/mL (≈ 543 µM); Activity (HL-60): Non-toxic |
| Oc1ccc2c(c1)CCC2 | – | inactive | – |
| O=c1[nH]c2ccccc2[nH]1 | – | inactive | – |
| Oc1cccc2c1CCN2 | 0.21 ×10³ /M/s | – | – |
| Oc1ccc2cc[nH]c2c1 | 11 ×10³ /M/s | – | – |
| O=C1Cc2ccccc2C1 | – | inactive | – |
| O=C1Cc2ccccc2N1 | – | inactive | – |
| O=c1[nH]c2ccc(O)cc2o1 | 8.7 ×10³ /M/s | – | – |
| CC1=NN(c2ccccc2)C(=O)C1 | 72 ×10³ /M/s | – | – |
| Nc1ccc(O)cc1 [4-AMINOPHENOL] | 310 ×10³ /M/s | – | Activity (HL-60): Toxic |
